Consider nine compounds from patent US10849881B2, “Octahydro-cyclobuta[1,2-c;3,4-c′]dipyrrol-2-yl” (Hoffmann-La Roche Inc., priority 2013, dated 2020).

The target of the assay is ATX (human His-tagged) (Homo sapiens (Human), UniProt Q13822). Description: Human ATX enzyme inhibition assay (fluorescence quenching, MR121 substrate). Type of assay: biochemical. The following applies: 30 nM ATX, 1 μM MR121 substrate, 30° C., pH 8.0. The essentials: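 Fluorescence quenching assay with MR121/tryptophan-labelled substrate analogue in Tris-HCl buffer (140 mM NaCl, CaCl2, MgCl2, 0.01% Triton X-100, pH 8.0). Serially diluted compounds were preincubated 15 min at 30 °C with 30 nM ATX (final), then 1 µM substrate (final) added and incubated 15 min at 30 °C.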

For orientation: IC50 means the concentration needed to halve the response being measured. The low end stands for higher potency, the high end for lower potency. For the compound `CC(C)c1ccccc1OCC(=O)N1C[C@@H]2[C@H](C1)[C@H]1CN(C(=O)c3ccc4[nH]nnc4c3)C[C@@H]21` [Example 1.009, 1-[(3aR,3bS,6aR,6bS)-5-(1H-benzotriazole-5-carbonyl)-octahydro-cyclobuta[1,2-c;3,4-c′]dipyrrol-2-yl]-2-(2-isopropyl-phenoxy)-ethanone], the IC50 was found to be 8 nM.

With `O=C(c1ccc(-c2ccc(Cl)cc2)cc1)N1C[C@@H]2[C@H](C1)[C@H]1CN(C(=O)c3ccc4[nH]nnc4c3)C[C@@H]21` [Example 1.017, [(3aS,3bS,6aR,6bR)-5-(1H-benzotriazole-5-carbonyl)-octahydro-cyclobuta[1,2-c;3,4-c′]dipyrrol-2-yl]-(4′-chloro-biphenyl-4-yl)-methanone], the IC50 worked out at 8 nM.

In turn, `CCOc1cc(C(=O)N2C[C@@H]3[C@H]4CN(C(=O)c5ccc6[nH]nnc6c5)C[C@H]4[C@@H]3C2)nc2ccccc12` [Example 1.066, [(3aR,3bS,6aR,6bS)-5-(1H-benzotriazole-5-carbonyl)-octahydro-cyclobuta[1,2-c;3,4-c′]dipyrrol-2-yl]-(4-ethoxy-quinolin-2-yl)-methanone] showed an IC50 of 5 nM.

With `O=C(c1ccc2[nH]nnc2c1)N1C[C@@H]2[C@H](C1)[C@H]1CN(C(=O)c3cc(OCC(F)(F)F)c(C4CC4)cn3)C[C@@H]21` [Example 1.094, (1H-benzotriazol-5-yl)-{(3aS,3bR,6aS,6bR)-5-[5-cyclopropyl-4-(2,2,2-trifluoro-ethoxy)-pyridine-2-carbonyl]-octahydro-cyclobuta[1,2-c;3,4-c′]dipyrrol-2-yl}-methanone], it took 77 nM to reach half-maximal inhibition (IC50).

Take `O=C1CC(C(=O)N2C[C@@H]3[C@H]4CN(C(=O)c5ccc6[nH]nnc6c5)C[C@H]4[C@@H]3C2)Cc2ccccc21` (stereo partly drawn) [Example 1.041, 3-[(3aS,3bR,6aS,6bR)-5-(1H-benzotriazole-5-carbonyl)-octahydro-cyclobuta[1,2-c;3,4-c′]dipyrrole-2-carbonyl]-3,4-dihydro-2H-naphthalen-1-one]: it took 538 nM to reach half-maximal inhibition (IC50).

`CCOc1c(C(=O)N2C[C@@H]3[C@H]4CN(C(=O)c5ccc6[nH]nnc6c5)C[C@H]4[C@@H]3C2)ccc2c1ccn2CC` [Example 1.081, [(3aS,3bS,6aR,6bR)-5-(1H-benzotriazole-5-carbonyl)-octahydro-cyclobuta[1,2-c;3,4-c′]dipyrrol-2-yl]-(4-ethoxy-1-ethyl-1H-indol-5-yl)-methanone]: the concentration for half-maximal inhibition (IC50) came to 7.5 nM.

`COCCOc1nc(C(=O)N2C[C@@H]3[C@H]4CN(C(=O)c5ccc6[nH]nnc6c5)C[C@H]4[C@@H]3C2)cc2ccccc12` [Example 1.057, [(3aR,3bS,6aR,6bS)-5-(1H-benzotriazole-5-carbonyl)-octahydro-cyclobuta[1,2-c;3,4-c′]dipyrrol-2-yl]-[1-(2-methoxy-ethoxy)-isoquinoline-3-yl]-methanone] displayed an IC50 of 7.7 nM.

For the compound `O=C(c1ccc2[nH]nnc2c1)N1C[C@@H]2[C@H](C1)[C@H]1CN(C(=O)N3CCc4cc(C(F)(F)F)ccc4C3)C[C@@H]21` [Example 4, [(3aR,3bS,6aR,6bS)-5-(1H-Benzotriazole-5-carbonyl)-octahydro-cyclobuta[1,2-c;3,4-c′]dipyrrol-2-yl]-(6-trifluoromethyl-3,4-dihydro-1H-isoquinolin-2-yl)-methanone], the IC50 is 70 nM.

`CCOc1cc(C(=O)N2C[C@@H]3[C@H]4CN(C(=O)c5ccc6[nH]nnc6c5)C[C@H]4[C@@H]3C2)nc2cc(OC)ccc12` [Example 1.090, (1H-benzotriazol-5-yl)-[(3aS,3bR,6aS,6bR)-5-(4-ethoxy-7-methoxy-quinoline-2-carbonyl)-octahydro-cyclobuta[1,2-c;3,4-c′]dipyrrol-2-yl]-methanone] returned an IC50 of 19 nM.
